Target: T1, human GR (Homo sapiens, UniProt P04150)
T1 sequence (P04150 1-777): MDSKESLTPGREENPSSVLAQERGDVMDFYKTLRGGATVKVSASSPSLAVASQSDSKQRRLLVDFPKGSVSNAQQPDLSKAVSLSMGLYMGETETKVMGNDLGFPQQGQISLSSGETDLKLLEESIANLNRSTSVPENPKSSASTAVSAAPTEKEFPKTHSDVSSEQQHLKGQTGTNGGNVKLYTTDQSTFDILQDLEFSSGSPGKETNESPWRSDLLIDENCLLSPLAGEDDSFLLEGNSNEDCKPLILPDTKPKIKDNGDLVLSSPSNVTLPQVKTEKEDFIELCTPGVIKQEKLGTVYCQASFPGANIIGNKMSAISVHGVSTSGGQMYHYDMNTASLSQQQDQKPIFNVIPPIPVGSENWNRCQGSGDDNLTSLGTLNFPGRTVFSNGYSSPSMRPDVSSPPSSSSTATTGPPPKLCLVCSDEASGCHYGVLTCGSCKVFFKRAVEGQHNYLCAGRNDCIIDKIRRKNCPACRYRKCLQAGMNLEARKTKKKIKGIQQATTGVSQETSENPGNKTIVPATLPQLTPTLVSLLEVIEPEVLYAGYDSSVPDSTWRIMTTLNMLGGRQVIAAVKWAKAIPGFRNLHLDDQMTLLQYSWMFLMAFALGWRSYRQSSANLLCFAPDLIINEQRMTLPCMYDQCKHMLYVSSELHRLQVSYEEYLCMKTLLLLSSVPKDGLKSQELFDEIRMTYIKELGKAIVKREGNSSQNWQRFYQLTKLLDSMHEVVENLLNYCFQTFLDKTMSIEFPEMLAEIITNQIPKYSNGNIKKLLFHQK
Assay: Trans-Activation Modulation of Glucocorticoid Receptor (GRAMMER), MMTV-LUC reporter, agonist mode
Type: cell-based
Parameters: endogenous in cells
Settings: for Emax: A549, A549 cells, maximum activity, read-out: Transactivation A549 Cells GRAMMER Emax; for EC50: A549 cells, inflection point, read-out: Transactivation A549 Cells GRAMMER IP
Method in brief: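 Readout is luciferase from a modified MMTV LTR promoter after 24 h compound exposure alongside 10 nM dexamethasone (100% activity reference), DMSO ≤1%.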

| Compound | Emax [%] | EC50 [µM] |
| --- | --- | --- |
| C[C@]12Cc3cnn(-c4ccc(F)cc4)c3C=C1CC[C@@H]2CN(CCO)S(=O)(=O)c1ccccc1C(F)(F)F [Example 70, N-{[(4αR,5S)-1-(4-fluorophenyl)-4α-methyl-1,4,4α,5,6,7-hexahydrocyclopenta[f]indazol-5-yl]methyl}-N-(2-hydroxyethyl)-2-(trifluoromethyl)benzenesulfonamide] | 25.8 | 0.564 |
| C[C@]12Cc3cnn(-c4ccc(F)cc4)c3C=C1CC[C@@H]2CN(CCc1ccccc1F)S(=O)(=O)c1ccccc1F [Example 86, 2-fluoro-N-[2-(2-fluorophenyl)ethyl]-N-{[(4αR,5S)-1-(4-fluorophenyl)-4α-methyl-1,4,4α,5,6,7-hexahydrocyclopenta[f]indazol-5-yl]methyl}benzenesulfonamide] | 68.2 | 0.0686 |
| C[C@]12Cc3cnn(-c4ccc(F)cc4)c3C=C1CC[C@@H]2CN(CCO)S(=O)(=O)c1ccc(F)cc1F [Example 82, 2,4-difluoro-N-{[(4αR,5S)-1-(4-fluorophenyl)-4α-methyl-1,4,4α,5,6,7-hexahydrocyclopenta[f]indazol-5-yl]methyl}-N-(2-hydroxyethyl)benzenesulfonamide] | 61.1 | 0.287 |
| C[C@]12Cc3cnn(-c4ccc(F)cc4)c3C=C1CC[C@@H]2CN(CCO)S(=O)(=O)c1cccc(C#N)c1 [Example 68, 3-cyano-N-{[(4αR,5S)-1-(4-fluorophenyl)-4α-methyl-1,4,4α,5,6,7-hexahydrocyclopenta[f]indazol-5-yl]methyl}-N-(2-hydroxyethyl)benezenesulfonamide] | 10 | 0.951 |
| C[C@]12Cc3cnn(-c4ccc(F)cc4)c3C=C1CC[C@@H]2CN(CCO)S(=O)(=O)c1ccccc1-c1ccccc1 [Example 84, N-{[(4αR,5S)-1-(4-fluorophenyl)-4α-methyl-1,4,4α,5,6,7-hexahydrocyclopenta[f]indazol-5-yl]methyl}-N-(2-hydroxyethyl)biphenyl-2-sulfonamide] | 19.7 | 0.442 |
| C[C@]12Cc3cnn(-c4ccc(F)cc4)c3C=C1CC[C@@H]2CN(CCO)S(=O)(=O)c1ccccc1Cl [Example 81, 2-chloro-N-{[(4αR,5S)-1-(4-fluorophenyl)-4α-methyl-1,4,4α,5,6,7-hexahydrocyclopenta[f]indazol-5-yl]methyl}-N-(2-hydroxyethyl)benzenesulfonamide] | 17.2 | 0.461 |
| C[C@]12Cc3cnn(-c4ccc(F)cc4)c3C=C1CC[C@@H]2CN(CCO)S(=O)(=O)c1ccc(Oc2ccccc2)cc1 [Example 79, N-{[(4αR,5S)-1-(4-fluorophenyl)-4α-methyl-1,4,4α,5,6,7-hexahydrocyclopenta[f]indazol-5-yl]methyl}-N-(2-hydroxyethyl)-4-phenoxybenzenesulfonamide] | 7.5 | 1.32 |
| C[C@]12Cc3cnn(-c4ccc(F)cc4)c3C=C1CC[C@@H]2CN(CCc1ccccc1F)S(=O)(=O)CC(F)(F)F [Example 89, 2,2,2-trifluoro-N-[2-(2-fluorophenyl)ethyl]-N-{[(4αR,5S)-1-(4-fluorophenyl)-4α-methyl-1,4,4α,5,6,7-hexahydrocyclopenta[f]indazol-5-yl]methyl}ethanesulfonamide] | 81.4 | 0.119 |
| C[C@]12Cc3cnn(-c4ccc(F)cc4)c3C=C1CC[C@@H]2CN(CCO)S(=O)(=O)c1ccc(Oc2cccc(Cl)c2C#N)cc1 [Example 69, 4-(3-chloro-2-cyanophenoxy)-N-{[(4αR,5S)-1-(4-fluorophenyl)-4α-methyl-1,4,4α,5,6,7-hexahydrocyclopenta[f]indazol-5-yl]methyl}-N-(2-hydroxyethyl)benzenesulfonamide] | 12.6 | 0.852 |
| Cn1cc(S(=O)(=O)N(CCO)C[C@H]2CCC3=Cc4c(cnn4-c4ccc(F)cc4)C[C@@]32C)c(C(F)(F)F)n1 [Example 65, N-{[(4αR,5S)-1-(4-fluorophenyl)-4α-methyl-1,4,4α,5,6,7-hexahydrocyclopenta[f]indazol-5-yl]methyl}-N-(2-hydroxyethyl)-1-methyl-3-(trifluoromethyl)-1H-pyrazole-4-sulfonamide] | 19.6 | 1.08 |
| C[C@]12Cc3cnn(-c4ccc(F)cc4)c3C=C1CC[C@@H]2CN(CCO)S(=O)(=O)c1ccccc1C#N [Example 78, 2-cyano-N-{[(4αR,5S)-1-(4-fluorophenyl)-4α-methyl-1,4,4α,5,6,7-hexahydrocyclopenta[f]indazol-5-yl]methyl}-N-(2-hydroxyethyl)benzenesulfonamide] | 50.6 | 0.652 |
| Cc1noc(C)c1S(=O)(=O)N(CCO)C[C@H]1CCC2=Cc3c(cnn3-c3ccc(F)cc3)C[C@@]21C [Example 71, N-{[(4αR,5S)-1-(4-fluorophenyl)-4α-methyl-1,4,4α,5,6,7-hexahydrocyclopenta[f]indazol-5-yl]methyl}-N-(2-hydroxyethyl)-3,5-dimethylisoxazole-4-sulfonamide] | 63.1 | 0.257 |
| C=CCN(C[C@H]1CCC2=Cc3c(cnn3-c3ccc(F)cc3)C[C@@]21C)S(=O)(=O)c1ccccc1F [Example 3, N-allyl-2-fluoro-N-{[(4αR,5S)-1-(4-fluorophenyl)-4α-methyl-1,4,4α,5,6,7-hexahydrocyclopenta[f]indazol-5-yl]methyl}benzenesulfonamide] | 39.3 | 0.368 |
| COc1ccccc1CCN(C[C@H]1CCC2=Cc3c(cnn3-c3ccc(F)cc3)C[C@@]21C)S(=O)(=O)c1ccccc1F [Example 90, 2-fluoro-N-{[(4αR,5S)-1-(4-fluorophenyl)-4α-methyl-1,4,4α,5,6,7-hexahydrocyclopenta[f]indazol-5-yl]methyl}-N-[2-(2-methoxyphenyl)ethyl]benzenesulfonamide] | 33.5 | 0.354 |
| C[C@]12Cc3cnn(-c4ccc(F)cc4)c3C=C1CC[C@@H]2CN(CCO)S(=O)(=O)Cc1cccc(C(F)(F)F)c1 [Example 63, N-{[(4αR,5S)-1-(4-fluorophenyl)-4α-methyl-1,4,4α,5,6,7-hexahydrocyclopenta[f]indazol-5-yl]methyl}-N-(2-hydroxyethyl)-1-[3-(trifluoromethyl)phenyl]methanesulfonamide] | 2.1 | 1.41 |

From US8299048B2, “Hexahydrocyclopentyl[f]indazole sulfonamides and derivatives thereof as selective glucocorticoid receptor modulators” (Merck Sharp & Dohme Corp., priority 2008, dated 2012)
